Measurements published in US20260242395A1, “AMINOHETEROARYL KINASE INHIBITORS” (ALLORION THERAPEUTICS INC, priority 2022, published 2026).

Key:
Type in all cases: biochemical
[1] = molecular target: T1, CDK1/CyclinB (Homo sapiens, UniProt P06493); test: CDK1/CyclinB kinase inhibitory activity (Caliper mobility shift); details: enzyme 3 nM, ATP 20 μM, 28° C. 30 min; read-out: CDK1/Cyclin B1 IC50
T1 construct: purchased Millipore 14-450M
Method: CDK1/CyclinB kinase inhibitory activity (IC50): 5 μl of various dilutions of test compound in 1× kinase buffer (50 mM HEPES pH 7.5, 10 mM MgCl2, 2 mM DTT and 0.01% Brij-35) was mixed with 10 μL of CDK1/CyclinB (Millipore, 14-450M #, final concentration 3 nM in 1× Kinase buffer) in 384 plates and incubated at room temperature for 10 min. To initiate each reaction, 10 μL of peptide solution containing fluorescently-labeled-peptide 18(5-FAM-QSPKKG-CONH2) (GL, 114202 #, final concentration 3000 nM) and ATP (final concentration 20 μM) in 1× Kinase buffer was added to each of the wells containing test compound and CDK1/CyclinB mixture. The reaction is then allowed to proceed at 28° C. for 30 min and terminated by the addition of 25 μL stop buffer (100 mM HEPES pH 7.5, 50 mM EDTA, 0.2% Coating Reagent #3 (Perkin Elmer, 760050 #) and 0.015% Brij-35).
(§1) Following the kinase reaction, Caliper EZ reader II (Downstream voltages: −500V, Upstream voltages: −2250V, Base pressure −0.5 PSI, Screen pressure −1.2 PSI) was used to separate the phosphorylated (product) and the unphosphorylated (substrate) fluorescently-labeled peptide 18 based on their different mobility. Both substrate and product were measured and the ratio of these values were used to generate % conversion by Caliper EZ reader II. These conversion values were then transformed into % inhibition of kinase activity using the formula: % Inhibition=[(MA−X)/(MA−MI)]×100% where MA=conversion value of DMSO only controls, MI=conversion value of no enzyme controls and X=conversion value at any given compound dose. IC50 values were then calculated by plotting dose-response curves and then using the XLfit application in Excel software.

[2] = molecular target: T2, CDK2/CyclinE1 (Homo sapiens, UniProt P24941); test: CDK2/CyclinE1 kinase inhibitory activity (Caliper mobility shift); details: enzyme 3 nM, ATP 77 μM, 28° C. 30 min; read-out: CDK2/Cyclin E1 IC50
T2 construct: purchased Carna 04-165
Method: CDK2/CyclinE1 kinase inhibitory activity (IC50): 5 μl of various dilutions of test compounds in 1×kinase buffer (50 mM HEPES pH 7.5, 10 mM MgCl2, 2 mM DTT and […] Brij-35) were mixed with 10 μL of CDK2/CyclinE1 (Carna, 04-165 #, final concentration 3 nM in 1×Kinase buffer) in 384 plates and incubated at room temperature for 10 min. To initiate each reaction, 10 μL of peptide solution containing fluorescently-labeled-peptide 18(5-FAM-QSPKKG-CONH2) (GL, 114202 #, final concentration 3000 nM) and ATP (final concentration 77 μM) in 1×Kinase buffer was added to each of the wells containing test compound and CDK2/CyclinE1 mixture. The reaction was then allowed to proceed at 28° C. for 30 min and terminated by the addition of 25 μL stop buffer (100 mM HEPES pH 7.5, 50 mM EDTA, 0.2% Coating Reagent #3 (Perkin Elmer, 760050 #) and 0.015% Brij-35).
as §1

[3] = molecular target: T3, CDK7/CyclinH/MAT1 (Homo sapiens, UniProt P50613); test: CDK7/CyclinH/MAT1 kinase inhibitory activity (Caliper mobility shift); details: enzyme 12.5 nM, ATP 70 μM, 28° C. 30 min; read-out: CDK7/Cyclin H/MAT1 IC50
T3 construct: purchased Millipore 14-476M
T3 sequence (P50613 whole entry): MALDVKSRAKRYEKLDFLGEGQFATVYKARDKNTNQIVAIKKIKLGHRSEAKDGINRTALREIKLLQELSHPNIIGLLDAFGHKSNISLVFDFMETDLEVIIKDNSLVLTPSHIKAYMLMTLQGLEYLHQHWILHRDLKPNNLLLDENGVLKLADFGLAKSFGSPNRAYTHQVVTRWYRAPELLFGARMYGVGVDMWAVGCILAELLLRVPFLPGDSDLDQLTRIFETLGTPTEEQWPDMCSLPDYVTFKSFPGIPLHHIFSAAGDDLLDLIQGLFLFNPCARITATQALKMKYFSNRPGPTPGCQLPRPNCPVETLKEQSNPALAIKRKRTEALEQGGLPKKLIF
T3 sequence (P51946 whole entry partner): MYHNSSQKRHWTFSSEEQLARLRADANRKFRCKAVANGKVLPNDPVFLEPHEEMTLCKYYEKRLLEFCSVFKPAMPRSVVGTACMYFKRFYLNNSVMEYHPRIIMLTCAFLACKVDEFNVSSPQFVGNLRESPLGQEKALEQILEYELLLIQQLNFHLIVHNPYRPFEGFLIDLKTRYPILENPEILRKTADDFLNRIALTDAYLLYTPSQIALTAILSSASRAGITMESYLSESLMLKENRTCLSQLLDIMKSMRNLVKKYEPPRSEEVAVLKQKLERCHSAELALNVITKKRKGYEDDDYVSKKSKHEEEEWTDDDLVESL
T3 sequence (P51948 whole entry partner): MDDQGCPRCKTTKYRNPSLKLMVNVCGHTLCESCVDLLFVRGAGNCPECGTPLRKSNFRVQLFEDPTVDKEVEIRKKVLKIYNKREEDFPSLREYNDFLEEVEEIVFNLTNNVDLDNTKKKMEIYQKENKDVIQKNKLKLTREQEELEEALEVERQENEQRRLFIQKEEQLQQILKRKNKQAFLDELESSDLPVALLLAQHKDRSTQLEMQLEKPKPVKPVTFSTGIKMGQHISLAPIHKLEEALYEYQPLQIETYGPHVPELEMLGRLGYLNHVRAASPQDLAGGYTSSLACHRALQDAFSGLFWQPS
Method: CDK7/CyclinH/MAT1 kinase inhibitory activity (IC50): 5 μl of various dilutions of test compound in 1× kinase buffer (20 mM HEPES, pH 7.5, 10 mM MgCl2, 2 mM DTT and 0.01% Triton X-100) was mixed with 10 μL of CDK7/CyclinH/MAT1 (Millipore, 14-476M #, final concentration 12.5 nM in 1× Kinase buffer) in 384 plates and incubated at room temperature for 10 min. To initiate each reaction, 10 μL of peptide solution containing fluorescently-labeled-peptide CTD3 (5-FAM-[…], GL, SY346885 #, final concentration 3000 nM) and ATP (final concentration 70 μM) in 1× Kinase buffer was added to each of the wells containing test compound and CDK7/CyclinH/MAT1 mixture. The reaction is then allowed to proceed at 28° C. for 30 min and terminated by the addition of 25 μL stop buffer (100 mM HEPES pH 7.5, 50 mM EDTA, 0.2% Coating Reagent #3 (Perkin Elmer, 760050 #) and 0.015% Brij-35).
as §1, with “the phosphoiylated” for “the phosphorylated”, “peptide CTD3” for “peptide 18”

T1 sequence (P06493 whole entry): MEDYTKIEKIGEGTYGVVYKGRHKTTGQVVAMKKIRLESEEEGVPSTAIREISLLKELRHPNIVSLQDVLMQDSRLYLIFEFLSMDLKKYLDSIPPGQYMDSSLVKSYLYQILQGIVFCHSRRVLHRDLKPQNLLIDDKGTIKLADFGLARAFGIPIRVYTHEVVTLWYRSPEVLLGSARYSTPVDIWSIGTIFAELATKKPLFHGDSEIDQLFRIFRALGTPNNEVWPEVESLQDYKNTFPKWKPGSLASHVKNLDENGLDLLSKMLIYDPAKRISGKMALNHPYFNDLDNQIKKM
T1 sequence (P14635 whole entry partner): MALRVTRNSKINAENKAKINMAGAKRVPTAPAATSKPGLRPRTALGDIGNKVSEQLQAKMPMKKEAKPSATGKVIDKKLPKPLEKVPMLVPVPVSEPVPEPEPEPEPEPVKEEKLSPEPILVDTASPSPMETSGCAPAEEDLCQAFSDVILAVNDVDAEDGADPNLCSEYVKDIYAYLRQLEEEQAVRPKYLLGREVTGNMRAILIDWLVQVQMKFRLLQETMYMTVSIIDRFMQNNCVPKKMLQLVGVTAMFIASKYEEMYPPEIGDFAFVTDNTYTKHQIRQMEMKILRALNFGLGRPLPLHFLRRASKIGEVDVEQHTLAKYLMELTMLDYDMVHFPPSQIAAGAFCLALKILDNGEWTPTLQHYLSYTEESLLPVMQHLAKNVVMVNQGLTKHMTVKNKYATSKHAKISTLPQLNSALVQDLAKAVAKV

Row | IC50 [1] [nM] | IC50 [2] [nM] | IC50 [3] [nM] | Compound
1 | ≥ 1000 | ≥ 1000 | ≥ 1000 | Cc1nc2c(F)cc(-c3nc(N[C@@H]4CCOC[C@H]4O)ncc3Cl)cc2c2c1CCN(C)C2 [Example 37]
2 | ≥ 1000 | 100 to 1000 | ≥ 1000 | CC(C)(O)c1cnc2c(F)cc(-c3nc(N[C@@H]4CCOC[C@H]4O)ncc3C#N)cc2c1Cl [Example 41]
3 | ≥ 1000 | 100 to 1000 | ≥ 1000 | CC1(C)Cc2cnc3c(F)cc(-c4nc(N[C@@H]5CCOC[C@H]5O)ncc4C#N)cc3c2CN1 [Example 49]
4 | ≥ 1000 | ≥ 1000 | ≥ 1000 | CC(C)(O)c1cnc2c(F)cc(-c3nc(Nc4ccc(-c5c[nH]cn5)cn4)ncc3F)cc2c1Cl [Example 52]
5 | 10 to 100 | 10 to 100 | 10 to 100 | O[C@@H]1COCC[C@H]1Nc1ncc(F)c(-c2cc(F)c3ncc4c(c3c2)CNC2(CC2)C4)n1 [Example 56]
6 | ≥ 1000 | ≥ 1000 | ≥ 1000 | Cc1c(C(C)(C)O)cnc2c(C)cc(-c3nc(N[C@@H]4CCOC[C@H]4O)ncc3Cl)cc12 [Example 58]
7 | ≥ 1000 | ≥ 1000 | ≥ 1000 | [2H]C([2H])([2H])C(O)(c1cc2cc(-c3nc(N[C@@H]4CCOC[C@H]4O)ncc3Cl)cc(F)c2nc1C)C([2H])([2H])[2H] [Example 60, (3S,4R)-4-((5-chloro-4-(8-fluoro-3-(2-hydroxypropan-2-yl-1,1,1,3,3,3-d6)-2-methylquinolin-6-yl)pyrimidin-2-yl)amino)tetrahydro-2H-pyran-3-ol]
8 | 100 to 1000 | 100 to 1000 | 100 to 1000 | Cc1nc2c(F)cc(-c3nc(N[C@@H]4CCOC[C@H]4O)ncc3F)cc2c2c1CC1(CC1)NC2 [Example 65]
9 | ≥ 1000 | ≥ 1000 | ≥ 1000 | [2H]c1nc2c(F)cc(-c3nc(N[C@@H]4CCOC[C@H]4O)ncc3C)cc2c2c1CC1(CC1)NC2 [Example 67]
10 | 100 to 1000 | 100 to 1000 | 100 to 1000 | [2H]c1nc(N[C@@H]2CCOC[C@H]2O)nc(-c2cc(F)c3nc([2H])c4c(c3c2)CNC2(CC2)C4)c1Cl [Example 68]
11 | 100 to 1000 | 100 to 1000 | 100 to 1000 | [2H]c1nc(N[C@@H]2CCOC[C@H]2O)nc(-c2cc(F)c3nc(C)c(C(C)(C)O)cc3c2)c1F [Example 83]
12 | 100 to 1000 | 100 to 1000 | 10 to 100 | [2H]c1nc2c(F)cc(-c3nc(N[C@@H]4CCOC[C@H]4O)ncc3F)cc2c(C)c1C(C)(C)O [Example 94]

Continued, molecule first:

Row | Compound | IC50 [1] [nM] | IC50 [2] [nM] | IC50 [3] [nM]
13 | CC(C)(N)c1cnc2c(F)cc(-c3nc(N[C@@H]4CCOC[C@H]4O)ncc3Cl)cc2c1 [Example 14, (3S,4R)-4-((4-(3-(2-aminopropan-2-yl)-8-fluoroquinolin-6-yl)-5-chloropyrimidin-2-yl)amino)tetrahydro-2H-pyran-3-ol] | 10 to 100 | 10 to 100 | 100 to 1000
14 | CC(C)(O)c1cnc2c(F)cc(-c3nc(N[C@@H]4CCOC[C@H]4O)ncc3Cl)cc2c1Cl [Example 17, (3S,4R)-4-((5-chloro-4-(4-chloro-8-fluoro-3-(2-hydroxypropan-2-yl)quinolin-6-yl)pyrimidin-2-yl)amino)tetrahydro-2H-pyran-3-ol] | 100 to 1000 | 100 to 1000 | ≥ 1000
15 | Cc1[nH]cnc1-c1cnc2c(F)cc(-c3nc(N[C@@H]4CCOC[C@H]4O)ncc3Cl)cc2c1 [Example 18, (3S,4R)-4-((5-chloro-4-(8-fluoro-3-(5-methyl-1H-imidazol-4-yl)quinolin-6-yl)pyrimidin-2-yl)amino)tetrahydro-2H-pyran-3-ol] | 100 to 1000 | 100 to 1000 | ≥ 1000
16 | O[C@@H]1COCC[C@H]1Nc1ncc(Cl)c(-c2cc(F)c3c(c2)N2CCNC[C@@H]2CO3)n1 [Example 19, (3S,4R)-4-((5-chloro-4-((R)-7-fluoro-1,2,3,4,4a,5-hexahydrobenzo[b]pyrazino[1,2-d][1,4]oxazin-9-yl)pyrimidin-2-yl)amino)tetrahydro-2H-pyran-3-ol] | 10 to 100 | 10 to 100 | 10 to 100
17 | O[C@@H]1COCC[C@H]1Nc1ncc(Cl)c(-c2cc(F)c3ncc4c(c3c2)CNC2(CC2)C4)n1 [Example 21, (3S,4R)-4-((5-chloro-4-(7-fluoro-1,4-dihydro-2H-spiro[benzo[c][2,6]naphthyridine-3,1′-cyclopropan]-9-yl)pyrimidin-2-yl)amino)tetrahydro-2H-pyran-3-ol] | 100 to 1000 | 100 to 1000 | ≥ 1000
18 | CC(C)(O)c1cnc2c(F)cc(-c3nc(N[C@@H]4CCOC[C@H]4O)ncc3F)cc2c1Cl [Example 22, (3S,4R)-4-((4-(4-chloro-8-fluoro-3-(2-hydroxypropan-2-yl)quinolin-6-yl)-5-fluoropyrimidin-2-yl)amino)tetrahydro-2H-pyran-3-ol] | 100 to 1000 | 100 to 1000 | 100 to 1000
19 | Cc1c(C(C)(C)O)cnc2c(F)cc(-c3nc(N[C@@H]4CCOC[C@H]4O)ncc3F)cc12 [Example 23, (3S,4R)-4-((5-fluoro-4-(8-fluoro-3-(2-hydroxypropan-2-yl)-4-methylquinolin-6-yl)pyrimidin-2-yl)amino)tetrahydro-2H-pyran-3-ol] | 100 to 1000 | 10 to 100 | 10 to 100
20 | CC1(C)Cc2cnc3c(F)cc(-c4nc(N[C@@H]5CCOC[C@H]5O)ncc4F)cc3c2CN1 [Example 24, (3S,4R)-4-((5-fluoro-4-(7-fluoro-3,3-dimethyl-1,2,3,4-tetrahydrobenzo[c][2,6]naphthyridin-9-yl)pyrimidin-2-yl)amino)tetrahydro-2H-pyran-3-ol] | 100 to 1000 | 10 to 100 | 100 to 1000
21 | O[C@@H]1COCC[C@H]1Nc1cc(-c2cc(F)c3ncc4c(c3c2)CNCC4)c(Cl)cn1 [Example 25] | 10 to 100 | 10 to 100 | 10 to 100
22 | CC(C)(N)c1cnc2ccc(-c3nc(N[C@@H]4CCOC[C@H]4O)ncc3Cl)cc2c1 [Example 26] | 100 to 1000 | 100 to 1000 | ≥ 1000
23 | O[C@@H]1COCC[C@H]1Nc1ncc(Cl)c(-c2cc(F)c3ncc(C4(O)CC4)cc3c2)n1 [Example 29] | 100 to 1000 | 100 to 1000 | ≥ 1000
24 | CC1(C)Cc2cnc3c(F)cc(-c4nc(N[C@@H]5CCOC[C@H]5O)ncc4Cl)cc3c2CN1 [Example 30] | 100 to 1000 | 100 to 1000 | ≥ 1000
25 | CNC(C)(C)c1cnc2c(F)cc(-c3nc(N[C@@H]4CCOC[C@H]4O)ncc3Cl)cc2c1 [Example 36] | ≥ 1000 | 100 to 1000 | ≥ 1000
